# Data as given in PubChem BioAssay (NCI).
# Values joined by “and” are separate entries in the source; they are usually repeats but may differ in a detail not shown here. Equal entries are not always repeated.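 Following 48 hours of exposure in 96-well plates, responses at five concentrations were used to interpolate endpoints linearly. The concentration for 50% growth inhibition is given as GI50. TGI: total growth inhibition.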
# Tests used:
# Experiment in all cases: NCI anticancer screen, dose series, 48 h
# NCI-H460 lung = system: NCI-H460 lung
# SK-MEL-2 melanoma = system: SK-MEL-2 melanoma
# LOX IMVI melanoma = system: LOX IMVI melanoma
# SK-OV-3 ovarian = system: SK-OV-3 ovarian
# MDA-MB-435 = system: MDA-MB-435
# COLO 205 colon = system: COLO 205 colon
# MDA-MB-231 breast = system: MDA-MB-231 breast
# OVCAR-8 ovarian = system: OVCAR-8 ovarian
# ACHN renal = system: ACHN renal
# HT29 colon = system: HT29 colon
# KM12 colon = system: KM12 colon
# HL-60(TB) leukemia = system: HL-60(TB) leukemia
# U251 CNS = system: U251 CNS
# HS 578T breast = system: HS 578T breast
# HOP-62 NSCLC = system: HOP-62 NSCLC
# K-562 leukemia = system: K-562 leukemia
# SF-268 CNS = system: SF-268 CNS
# MOLT-4 leukemia = system: MOLT-4 leukemia
# EKVX NSCLC = system: EKVX NSCLC
# NCI-H23 lung = system: NCI-H23 lung
# SR leukemia = system: SR leukemia
# SW-620 colon = system: SW-620 colon
# OVCAR-3 ovarian = system: OVCAR-3 ovarian
# UACC-257 melanoma = system: UACC-257 melanoma
# DU-145 prostate = system: DU-145 prostate
# IGROV1 ovarian = system: IGROV1 ovarian
# SN12C renal = system: SN12C renal
# OVCAR-5 ovarian = system: OVCAR-5 ovarian
# CCRF-CEM leukemia = system: CCRF-CEM leukemia
# RPMI-8226 leukemia = system: RPMI-8226 leukemia
# UACC-62 melanoma = system: UACC-62 melanoma
# SF-539 CNS = system: SF-539 CNS
# CAKI-1 renal = system: CAKI-1 renal
# TK-10 renal = system: TK-10 renal
# HOP-92 NSCLC = system: HOP-92 NSCLC
# SNB-19 CNS = system: SNB-19 CNS
# M14 melanoma = system: M14 melanoma
# BT-549 breast = system: BT-549 breast
# HCT-116 colon = system: HCT-116 colon
# NCI/ADR-RES ovarian = system: NCI/ADR-RES ovarian
# RXF 393 renal = system: RXF 393 renal
# A549 NSCLC = system: A549 NSCLC
# HCT-15 colon = system: HCT-15 colon
# T-47D breast = system: T-47D breast
# HCC-2998 colon = system: HCC-2998 colon
# SNB-75 CNS = system: SNB-75 CNS
# OVCAR-4 ovarian = system: OVCAR-4 ovarian
# 786-0 renal = system: 786-0 renal
# SK-MEL-5 melanoma = system: SK-MEL-5 melanoma
# NCI-H522 lung = system: NCI-H522 lung
# NCI-H226 lung = system: NCI-H226 lung
# SK-MEL-28 melanoma = system: SK-MEL-28 melanoma
# PC-3 prostate = system: PC-3 prostate
# UO-31 renal = system: UO-31 renal
# SF-295 CNS = system: SF-295 CNS
# MALME-3M melanoma = system: MALME-3M melanoma
compound,measurement,setting,value
Fc1cc(-c2cc(-c3ccc4c(c3)OCO4)n[nH]2)c(Cl)cc1Cl,TGI,NCI-H460 lung,14.6 µM
same,TGI,SK-MEL-2 melanoma,36.5 µM
same,TGI,LOX IMVI melanoma,8.49 µM
same,TGI,SK-OV-3 ovarian,5.44 µM
same,TGI,MDA-MB-435,30.9 µM
same,TGI,COLO 205 colon,> 23.4 µM
same,TGI,MDA-MB-231 breast,4.94 µM
same,TGI,OVCAR-8 ovarian,3.41 µM
same,TGI,ACHN renal,3.86 µM
same,TGI,HT29 colon,15.9 µM
same,TGI,KM12 colon,> 22.7 µM
same,TGI,HL-60(TB) leukemia,> 100 µM
same,TGI,U251 CNS,3.63 µM
same,TGI,HS 578T breast,> 45.4 µM
same,TGI,HOP-62 NSCLC,5.81 µM
same,TGI,K-562 leukemia,> 40.1 µM
same,TGI,SF-268 CNS,9.7 µM
same,TGI,MOLT-4 leukemia,> 50.7 µM
same,TGI,EKVX NSCLC,5.17 µM
same,TGI,NCI-H23 lung,7.73 µM
same,TGI,SR leukemia,> 50.1 µM
same,TGI,SW-620 colon,28.9 µM
same,TGI,OVCAR-3 ovarian,5.33 µM
same,TGI,UACC-257 melanoma,27.9 µM
same,TGI,DU-145 prostate,13 µM
same,TGI,IGROV1 ovarian,7.5 µM
same,TGI,SN12C renal,7.58 µM
same,TGI,OVCAR-5 ovarian,13.7 µM
same,TGI,CCRF-CEM leukemia,> 89 µM
same,TGI,RPMI-8226 leukemia,> 46.4 µM
same,TGI,UACC-62 melanoma,3.8 µM
same,TGI,SF-539 CNS,6.24 µM
same,TGI,CAKI-1 renal,10.8 µM
same,TGI,TK-10 renal,7.06 µM
same,TGI,HOP-92 NSCLC,6.21 µM
same,TGI,SNB-19 CNS,12.9 µM
same,TGI,M14 melanoma,18.3 µM
same,TGI,BT-549 breast,20.7 µM
same,TGI,HCT-116 colon,4.17 µM
same,TGI,NCI/ADR-RES ovarian,12.4 µM
same,TGI,RXF 393 renal,4.45 µM
same,TGI,A549 NSCLC,7.86 µM
same,TGI,HCT-15 colon,49.1 µM
same,TGI,T-47D breast,7.79 µM
same,TGI,HCC-2998 colon,15.6 µM
same,TGI,SNB-75 CNS,3680 nM
same,TGI,OVCAR-4 ovarian,4.49 µM
same,TGI,786-0 renal,3.59 µM
same,TGI,SK-MEL-5 melanoma,21 µM
same,TGI,NCI-H522 lung,14.6 µM
same,TGI,NCI-H226 lung,5.7 µM
same,TGI,SK-MEL-28 melanoma,16.9 µM
same,TGI,PC-3 prostate,11.1 µM
same,TGI,UO-31 renal,6.46 µM
same,TGI,SF-295 CNS,9.4 µM
same,TGI,MALME-3M melanoma,24.8 µM
Cc1nc(Nc2ncc(C(=O)Nc3c(C)cccc3Cl)s2)cc(N2CCN(CCO)CC2)n1,GI50,NCI-H460 lung,8.34 µM [middle of 4 runs]
same,GI50,LOX IMVI melanoma,14.2 nM [middle of 4 runs]
same,GI50,MDA-MB-435,5.7 µM [middle of 4 runs]
same,GI50,MDA-MB-231 breast,19.7 nM [middle of 4 runs]
same,GI50,OVCAR-8 ovarian,55.8 nM [middle of 4 runs]
same,GI50,HT29 colon,19.7 nM and 19.3 nM and 27.2 nM
same,GI50,KM12 colon,7.66 µM [middle of 4 runs]
same,GI50,U251 CNS,3.17 µM [middle of 4 runs]
same,GI50,K-562 leukemia,< 10 nM and 2 nM
same,GI50,SF-268 CNS,70.4 nM [middle of 4 runs]
same,GI50,DU-145 prostate,158 nM [middle of 4 runs]
same,TGI,DU-145 prostate,> 10 µM and 20 µM and 13.5 µM
same,GI50,OVCAR-5 ovarian,38.1 nM [middle of 4 runs]
same,GI50,UACC-62 melanoma,5.69 µM [middle of 4 runs]
same,GI50,SF-539 CNS,53.3 nM [middle of 4 runs]
same,GI50,TK-10 renal,22.2 nM and 10.9 nM and 8.43 nM
same,GI50,M14 melanoma,3.51 µM [middle of 4 runs]
same,GI50,NCI/ADR-RES ovarian,3.2 µM [middle of 4 runs]
same,GI50,A549 NSCLC,49.9 nM [middle of 4 runs]
same,GI50,HCT-15 colon,792 nM [middle of 4 runs]
same,GI50,SNB-75 CNS,< 10 nM and 4.68 nM and < 11.1 nM
same,TGI,SNB-75 CNS,25.7 nM and 56.3 nM and 58.7 nM
same,TGI,SK-MEL-28 melanoma,29 µM and > 10 µM and 20 µM
same,GI50,MALME-3M melanoma,6.6 µM [middle of 4 runs]
